Test: recombinant barcode read abundance after kanamycin selection (control-corrected) (log10(CPM+1)); higher = more efficient recombination; sequences stand for … in AGTGCAGAGAAAATCGGCCAGTTTTCTCTGCCTGCAGTCCGCATGCCGT…AGATTTATGCAGCGGACTGCCTTTCTCCCAAAGTGATAAACCGGACAGTATCATGGACCGGTTTTCCCGGTAATCCGTATTTGCAAGGTTGGTTTCACT; site = the 11-nt target
How it was run: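 Oligos holding a promoter, target, barcode and the J23119-driven first 104 bases of the bridge RNA were Gibson-cloned into a vector that supplied the other 73 bp plus a T7-inducible recombinase. This library was co-electroporated with a donor plasmid into E. coli. Two replicates went on chloramphenicol/ampicillin LB agar (control) and two on chloramphenicol/ampicillin/kanamycin with 0.1 mM IPTG. Recombination efficiency is read from averaged, control-corrected barcode counts per million at recombinant junctions, reported as log10(CPM+1).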
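Note: IS621 recombinase and bridge RNA in Escherichia coli cells.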

## TCTCTGCCTTGGGTTCTAACCTGTTGCCT (site TCTCAGCCTAG)
  recombinant barcode read abundance (log10): 0.277

## TCTCTGCCTTGGGTTCTAACCTGTTGCCT (site TCTCCGCCTAG)
  recombinant barcode read abundance (log10): 1.15

## TCTCTGCCTTGGGTTCTAACCTGTTGCCT (site TCTCGGCCTAG)
  recombinant barcode read abundance (log10): 0.108

## TCTCTGCCTTGGGTTCTAACCTGTTGCCT (site TCTCTGCCTAG)
  recombinant barcode read abundance (log10): 0.208

## TCTGAAACTTGGGTTCTAACCTGTTGCTT (site GACACCTCTCG)
  recombinant barcode read abundance (log10): 0.0724

## TCTGAAACTTGGGTTCTAACCTGTTGCTT (site TCTGAAACTAA)
  recombinant barcode read abundance (log10): 0.314

## TCTGAGGCTTGGGTTCTAACCTGTTGCTG (site TCAGAGGCTCA)
  recombinant barcode read abundance (log10): 0.263

## TCTGAGGCTTGGGTTCTAACCTGTTGCTG (site TCCGAGGCTCA)
  recombinant barcode read abundance (log10): 0.129

## TCTGAGGCTTGGGTTCTAACCTGTTGCTG (site TCGGAGGCTCA)
  recombinant barcode read abundance (log10): 0.0364

## TCTGAGGCTTGGGTTCTAACCTGTTGCTG (site TCTGAGGCTCA)
  recombinant barcode read abundance (log10): 0.455

## TCTGCGACTTGGGTTCTAACCTGTTGCCT (site TCAGCGACTAG)
  recombinant barcode read abundance (log10): 0.0737

## TCTGCGACTTGGGTTCTAACCTGTTGCCT (site TCCGCGACTAG)
  recombinant barcode read abundance (log10): 0.455

## TCTGCGACTTGGGTTCTAACCTGTTGCCT (site TCGGCGACTAG)
  recombinant barcode read abundance (log10): 0.114

## TCTGCGACTTGGGTTCTAACCTGTTGCCT (site TCTGCGACTAG)
  recombinant barcode read abundance (log10): 0.265

## TCTGGGGCTTGGGTTCTAACCTGTTGCCT (site ACTGGGGCTTG)
  recombinant barcode read abundance (log10): 0.0588

## TCTGGGGCTTGGGTTCTAACCTGTTGCCT (site TCTGGGGCTAG)
  recombinant barcode read abundance (log10): 0.0357

## TCTGGGGCTTGGGTTCTAACCTGTTGCGG (site TCTGGGGCTCA)
  recombinant barcode read abundance (log10): 0.376

## TCTGGGGCTTGGGTTCTAACCTGTTGCGG (site TCTGGGGCTCC)
  recombinant barcode read abundance (log10): 2.61

## TCTGGGGCTTGGGTTCTAACCTGTTGCGG (site TCTGGGGCTCG)
  recombinant barcode read abundance (log10): 0.271

## TCTGGGGCTTGGGTTCTAACCTGTTGCGG (site TCTGGGGCTCT)
  recombinant barcode read abundance (log10): 2.22

## TCTGTAACTTGGGTTCTAACCTGTTGCCT (site CAATCCTCTTA)
  recombinant barcode read abundance (log10): 0.183

## TCTGTAACTTGGGTTCTAACCTGTTGCCT (site TCTGTAACTAG)
  recombinant barcode read abundance (log10): 0.421

## TCTGTGTCTTGGGTTCTAACCTGTTGCTA (site ATATCAACTCG)
  recombinant barcode read abundance (log10): 0.0225

## TCTGTGTCTTGGGTTCTAACCTGTTGCTA (site TCTGTGTCTTA)
  recombinant barcode read abundance (log10): 1.46

## TCTTATACTTGGGTTCTAACCTGTTGCAT (site TCTTATACTAC)
  recombinant barcode read abundance (log10): 0.0107

## TCTTATACTTGGGTTCTAACCTGTTGCAT (site TCTTATACTAT)
  recombinant barcode read abundance (log10): 0.186

## TCTTGACCTTGGGTTCTAACCTGTTGCTT (site GGCACCACTCG)
  recombinant barcode read abundance (log10): 0.063

## TCTTGACCTTGGGTTCTAACCTGTTGCTT (site TCTTGACCTAA)
  recombinant barcode read abundance (log10): 0.242

## TCTTGCTCTTGGGTTCTAACCTGTTGCCT (site AGAACTCCTCA)
  recombinant barcode read abundance (log10): 0.102

## TCTTGCTCTTGGGTTCTAACCTGTTGCCT (site TCTTGCTCTAG)
  recombinant barcode read abundance (log10): 0.574

## TCTTGGACTTGGGTTCTAACCTGTTGCTT (site TCTTGGACTAA)
  recombinant barcode read abundance (log10): 0.421

## TCTTGGACTTGGGTTCTAACCTGTTGCTT (site TCTTGGACTCA)
  recombinant barcode read abundance (log10): 0.145

## TCTTGGACTTGGGTTCTAACCTGTTGCTT (site TCTTGGACTGA)
  recombinant barcode read abundance (log10): 0.0999

## TCTTGGACTTGGGTTCTAACCTGTTGCTT (site TCTTGGACTTA)
  recombinant barcode read abundance (log10): 0.138

## TCTTGGTCTTGGGTTCTAACCTGTTGCTA (site TCTTGGTCTTA)
  recombinant barcode read abundance (log10): 0.0413

## TCTTGGTCTTGGGTTCTAACCTGTTGCTA (site TTATGGTCTTA)
  recombinant barcode read abundance (log10): 0.208

## TCTTGTCCTTGGGTTCTAACCTGTTGCGA (site TCTTGTCCTAC)
  recombinant barcode read abundance (log10): 0.0306

## TCTTGTCCTTGGGTTCTAACCTGTTGCGA (site TCTTGTCCTCC)
  recombinant barcode read abundance (log10): 0.268

## TCTTGTCCTTGGGTTCTAACCTGTTGCGA (site TCTTGTCCTGC)
  recombinant barcode read abundance (log10): 0.343

## TCTTGTCCTTGGGTTCTAACCTGTTGCGA (site TCTTGTCCTTC)
  recombinant barcode read abundance (log10): 0.253

## TCTTGTCCTTGGGTTCTAACCTGTTGCGC (site TCTTGTCCTAC)
  recombinant barcode read abundance (log10): 0.0303

## TCTTGTCCTTGGGTTCTAACCTGTTGCGC (site TCTTGTCCTCC)
  recombinant barcode read abundance (log10): 0.093

## TCTTGTCCTTGGGTTCTAACCTGTTGCGC (site TCTTGTCCTGC)
  recombinant barcode read abundance (log10): 0.385

## TCTTGTCCTTGGGTTCTAACCTGTTGCGC (site TCTTGTCCTTC)
  recombinant barcode read abundance (log10): 0.0581

## TCTTGTCCTTGGGTTCTAACCTGTTGCGT (site TCTTGTCCTAC)
  recombinant barcode read abundance (log10): 0.682

## TCTTGTCCTTGGGTTCTAACCTGTTGCGT (site TCTTGTCCTCC)
  recombinant barcode read abundance (log10): 0.0386

## TCTTGTCCTTGGGTTCTAACCTGTTGCGT (site TCTTGTCCTGC)
  recombinant barcode read abundance (log10): 0.172

## TCTTGTCCTTGGGTTCTAACCTGTTGCGT (site TCTTGTCCTTC)
  recombinant barcode read abundance (log10): 0.0168

## TGAAACGCTTGGGTTCTAACCTGTTGCTT (site TGAAACGCTAA)
  recombinant barcode read abundance (log10): 1.2

## TGAAACGCTTGGGTTCTAACCTGTTGCTT (site TGAAGCCCTAA)
  recombinant barcode read abundance (log10): 0.0163

## TGAAAGCCTTGGGTTCTAACCTGTTGCTT (site TGAAAGCCTAA)
  recombinant barcode read abundance (log10): 0.215

## TGAAAGCCTTGGGTTCTAACCTGTTGCTT (site TGGAAGTCTAA)
  recombinant barcode read abundance (log10): 0.0888

## TGAAGCCCTTGGGTTCTAACCTGTTGCTT (site TGAAACGCTAA)
  recombinant barcode read abundance (log10): 0.179

## TGAAGCCCTTGGGTTCTAACCTGTTGCTT (site TGAAGCCCTAA)
  recombinant barcode read abundance (log10): 0.321

## TGAAGTACTTGGGTTCTAACCTGTTGCCT (site TGAAATACTAG)
  recombinant barcode read abundance (log10): 0.35

## TGAAGTACTTGGGTTCTAACCTGTTGCCT (site TGAACTACTAG)
  recombinant barcode read abundance (log10): 0.169

## TGAAGTACTTGGGTTCTAACCTGTTGCCT (site TGAAGTACTAG)
  recombinant barcode read abundance (log10): 0.257

## TGAAGTACTTGGGTTCTAACCTGTTGCCT (site TGAATTACTAG)
  recombinant barcode read abundance (log10): 0

## TGAATGACTTGGGTTCTAACCTGTTGCCT (site TGAATGACTAG)
  recombinant barcode read abundance (log10): 0.544

## TGAATGACTTGGGTTCTAACCTGTTGCCT (site TGGATGCCTAG)
  recombinant barcode read abundance (log10): 0.0355

## TGAATGTCTTGGGTTCTAACCTGTTGCCT (site TGAAAGTCTAG)
  recombinant barcode read abundance (log10): 0.0491

## TGAATGTCTTGGGTTCTAACCTGTTGCCT (site TGAACGTCTAG)
  recombinant barcode read abundance (log10): 0.0549

## TGAATGTCTTGGGTTCTAACCTGTTGCCT (site TGAAGGTCTAG)
  recombinant barcode read abundance (log10): 0.0166

## TGAATGTCTTGGGTTCTAACCTGTTGCCT (site TGAATGTCTAG)
  recombinant barcode read abundance (log10): 1.23

## TGACACACTTGGGTTCTAACCTGTTGCTG (site TGACACACTCA)
  recombinant barcode read abundance (log10): 2.22

## TGACACACTTGGGTTCTAACCTGTTGCTG (site TGAGACACTCA)
  recombinant barcode read abundance (log10): 0.127
